Results on 22 compounds are retold here after patent US9169241B2, “Quinolinyloxyphenylsulfonamides” (Max-Planck-Gesellschaft Zur Forderung der Wissenschaften …, priority 2009, dated 2015).

In the assay the test system is A172. Briefly: Cell vitality assay (ATP assay, CellTiter-Glo). The conditions noted are these: Homo sapiens, A 172; A172, 72 h; Table IIa; read-out: IC50 ATP-Assay after 72 h A172. The format is cell-based. Put shortly:
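ATP-based luminescence (CellTiter-Glo) after 72 h exposure of 1000 cells/well to seven compound concentrations from 0.195 to 12.5 μM. IC50 defined as concentration reducing ATP to 50% of DMSO control.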
For orientation: Cellular ATP, detected with luciferase, serves as a proxy for viable cell number.

A value given as a limit tells only on which side of the number the result lay.

For `COc1cc2c(Oc3ccc(NS(=O)(=O)c4c(Cl)cccc4Cl)cc3F)ccnc2cc1OCCCN1CCCCC1` [Example 6, 2,6-Dichloro-N-{3-fluoro-4-[6-methoxy-7-(3-piperidin-1-yl-propoxy)-quinolin-4-yloxy]-phenyl}-benzenesulfonamide], the IC50 was at most 12.5 µM. The same measure for `COc1cc2c(Oc3ccc(NS(=O)(=O)c4c(F)cccc4F)cc3F)ccnc2cc1OCCCN1CCCCC1` [Example 11, 2,6-Difluoro-N-{3-fluoro-4-[6-methoxy-7-(3-piperidin-1-yl-propoxy)-quinolin-4-yloxy]-phenyl}-benzenesulfonamide]: 12.5 to 50 µM; for `COc1cc2c(Oc3ccc(NS(=O)(=O)c4ccccc4[N+](=O)[O-])cc3F)ccnc2cc1OCCCN1CCCC(C)C1` (stereo not shown) [Example 40, N-(3-Fluoro-4-{6-methoxy-7-[3-(3-methyl-piperidin-1-yl)-propoxy]-quinolin-4-yloxy}-phenyl)-2-nitro-benzenesulfonamide]: at most 12.5 µM; for `COc1cc2c(Oc3ccc(NS(=O)(=O)c4ccccc4OC(F)(F)F)cc3F)ccnc2cc1OCCCN1CCCC(C)C1` (stereo not shown) [Example 45, N-(3-Fluoro-4-{6-methoxy-7-[3-(3-methyl-piperidin-1-yl)-propoxy]-quinolin-4-yloxy}-phenyl)-2-trifluoromethoxy-benzenesulfonamide]: at most 12.5 µM. `COc1cc2c(Oc3ccc(NS(=O)(=O)c4ccc(F)c(F)c4F)cc3F)ccnc2cc1OCCCN1CCCC(C)C1` (stereo not shown) [Example 49, 2,3,4-Trifluoro-N-(3-fluoro-4-{6-methoxy-7-[3-(3-methyl-piperidin-1-yl)-propoxy]-quinolin-4-yloxy}-phenyl)-benzenesulfonamide]: the IC50 is at most 12.5 µM. On to `COc1cc2c(Oc3ccc(NS(=O)(=O)c4c(Cl)cccc4Cl)cc3F)ccnc2cc1OCCCN1CCCC(C)C1` (stereo not shown) [Example 51, 2,6-Dichloro-N-(3-fluoro-4-{6-methoxy-7-[3-(3-methyl-piperidin-1-yl)-propoxy]-quinolin-4-yloxy}-phenyl)-benzenesulfonamide], for which the 50% inhibitory concentration (IC50) is at most 12.5 µM.

In the case of `COc1cc2c(Oc3ccc(NS(=O)(=O)c4cccc(Cl)c4F)cc3F)ccnc2cc1OCCCN1CCCC(C)C1` (stereo not shown) [Example 54, 3-Chloro-2-fluoro-N-(3-fluoro-4-{6-methoxy-7-[3-(3-methyl-piperidin-1-yl)-propoxy]-quinolin-4-yloxy}-phenyl)-benzenesulfonamide], the IC50 was at most 12.5 µM.

Consider `COc1cc2c(Oc3ccc(NS(=O)(=O)c4ccccc4OC(F)(F)F)cc3F)ccnc2cc1OCCCN1CCCCC1` [Example 78, N-{3-Fluoro-4-[6-methoxy-7-(3-piperidin-1-yl-propoxy)-quinolin-4-yloxy]-phenyl}-2-trifluoromethoxy-benzenesulfonamide], for which the IC50 is at most 12.5 µM. On to `COc1cc2c(Oc3ccc(NS(=O)(=O)c4c(Cl)cccc4Cl)cc3F)ccnc2cc1OCCN1CCOCC1` [Example 104, 2,6-Dichloro-N-{3-fluoro-4-[6-methoxy-7-(2-morpholin-4-yl-ethoxy)-quinolin-4-yloxy]-phenyl}-benzenesulfonamide], for which the half-maximal inhibitory concentration (IC50) lay within 12.5 to 50 µM. The same measure for `COc1cc2c(Oc3ccc(NS(=O)(=O)c4c(F)cccc4F)cc3F)ccnc2cc1OCCCN1CCN(C)CC1` [Example 110, 2,6-Difluoro-N-(3-fluoro-4-{6-methoxy-7-[3-(4-methyl-piperazin-1-yl)-propoxy]-quinolin-4-yloxy}-phenyl)-benzenesulfonamide]: at most 12.5 µM. The same measure for `COc1cc2c(Oc3ccc(NS(=O)(=O)c4cc(F)ccc4F)cc3Cl)ccnc2cc1OCCCN1CCN(C)CC1` [Example 112, N-(3-Chloro-4-{6-methoxy-7-[3-(4-methyl-piperazin-1-yl)-propoxy]-quinolin-4-yloxy}-phenyl)-2,5-difluoro-benzenesulfonamide]: at most 12.5 µM; for `COc1cc2c(Oc3ccc(NS(=O)(=O)c4c(Cl)cccc4Cl)cc3Cl)ccnc2cc1OCCCN1CCN(C)CC1` [Example 119, 2,6-Dichloro-N-(3-chloro-4-{6-methoxy-7-[3-(4-methyl-piperazin-1-yl)-propoxy]-quinolin-4-yloxy}-phenyl)-benzenesulfonamide]: at most 12.5 µM. The figure for `COC(=O)c1sccc1S(=O)(=O)Nc1ccc(Oc2ccnc3cc(OCCCN4CCCCC4)c(OC)cc23)c(F)c1` [Example 155, 3-{3-Fluoro-4-[6-methoxy-7-(3-piperidin-1-yl-propoxy)-quinolin-4-yloxy]-phenylsulfamoyl}-thiophene-2-carboxylic acid methyl ester] is at most 12.5 µM; for `COC(=O)c1sccc1S(=O)(=O)Nc1ccc(Oc2ccnc3cc(OCCCN4CCC(C)CC4)c(OC)cc23)c(F)c1` [Example 156, 3-(3-Fluoro-4-{6-methoxy-7-[3-(4-methyl-piperidin-1-yl)-propoxy]-quinolin-4-yloxy}-phenylsulfamoyl)-thiophene-2-carboxylic acid methyl ester] it is at most 12.5 µM; for `COC(=O)c1sccc1S(=O)(=O)Nc1ccc(Oc2ccnc3cc(OCCCN4CCOCC4)c(OC)cc23)c(F)c1` [Example 157, 3-{3-Fluoro-4-[6-methoxy-7-(3-morpholin-4-yl-propoxy)-quinolin-4-yloxy]-phenylsulfamoyl}-thiophene-2-carboxylic acid methyl ester] it is at most 12.5 µM. Regarding `COC(=O)c1sccc1S(=O)(=O)Nc1ccc(Oc2ccnc3cc(OCCCN4CCN(C)CC4)c(OC)cc23)c(F)c1` [Example 158, 3-(3-Fluoro-4-{6-methoxy-7-[3-(4-methyl-piperazin-1-yl)-propoxy]-quinolin-4-yloxy}-phenylsulfamoyl)-thiophene-2-carboxylic acid methyl ester], the IC50 is at most 12.5 µM. The same measure for `COc1cc2c(Oc3ccc(NS(=O)(=O)c4c(F)cccc4F)cc3F)ccnc2cc1OCCCN(C)C` [Example 178, N-{4-[7-(3-Dimethylamino-propoxy)-6-methoxy-quinolin-4-yloxy]-3-fluoro-phenyl}-2,6-difluoro-benzenesulfonamide]: at most 12.5 µM; for `COc1cc2c(Oc3ccc(NS(=O)(=O)c4ccccc4OC(F)(F)F)cc3F)ccnc2cc1OCCCN(C)C` [Example 179, N-{4-[7-(3-Dimethylamino-propoxy)-6-methoxy-quinolin-4-yloxy]-3-fluoro-phenyl}-2-trifluoromethoxy-benzenesulfonamide]: at most 12.5 µM; for `COc1cc2c(Oc3ccc(NS(=O)(=O)c4c(Cl)cccc4Cl)cc3F)ccnc2cc1OCCCN(C)C` [Example 181, 2,6-Dichloro-N-{4-[7-(3-dimethylamino-propoxy)-6-methoxy-quinolin-4-yloxy]-3-fluoro-phenyl}-benzenesulfonamide]: at most 12.5 µM.

Turning to `COC(=O)c1sccc1S(=O)(=O)Nc1ccc(Oc2ccnc3cc(OCCCN(C)C)c(OC)cc23)c(F)c1` [Example 184, 3-{4-[7-(3-Dimethylamino-propoxy)-6-methoxy-quinolin-4-yloxy]-3-fluoro-phenylsulfamoyl}-thiophene-2-carboxylic acid methyl ester], the IC50 is at most 12.5 µM. The same measure for `COc1cc2c(Oc3c(Cl)cc(NS(=O)(=O)c4c(F)cccc4F)cc3Cl)ccnc2cc1OCCCN1CCC(C)CC1` [Example 209, N-(3,5-Dichloro-4-{6-methoxy-7-[3-(4-methyl-piperidin-1-yl)-propoxy]-quinolin-4-yloxy}-phenyl)-2,6-difluoro-benzenesulfonamide]: at most 12.5 µM; for `COc1cc2c(Oc3c(Cl)cc(NS(=O)(=O)c4ccccc4C(F)(F)F)cc3Cl)ccnc2cc1OCCCN1CCC(C)CC1` [Example 210, N-(3,5-Dichloro-4-{6-methoxy-7-[3-(4-methyl-piperidin-1-yl)-propoxy]-quinolin-4-yloxy}-phenyl)-2-trifluoromethyl-benzenesulfonamide]: at most 12.5 µM.

By IC50 is commonly meant the concentration needed to halve the response being measured.
